Reference: patent US10105401B2, “Composition comprising bioactive amino acids and/or peptides and marine oil in a stable oil-in-water emulsion, and the use of said composition as a functional or therapeutic composition” (SMARTFISH AS, priority 2009, dated 2018)

Tests used:
[1] = when supplemented as part of Smartfish; skeletal muscle, heart, brain
Method: The tissues were finally analyzed for the content of carnosine, both labeled and non-labeled.
This amount equals 200 mg/kg per day. After one week, the following organs were dissected out; gastrocnemius, heart and brain and immediately frozen in liquid nitrogen, and stored at −80° C.
Carnosine (Sigma-Aldrich) and 15N13C2-labeled carnosine (Sigma-Aldrich) concentrations in tissue were determined by HPLC-MS/MS operated in MRM mode.
Mouse tissues were homogenized in Methanolic HCL using a pellet grinder with cordless motor (Kontes). The homogenate was incubated for 30 min at 50° C. This procedure homogenized the tissue, precipitated proteins and methylated the carboxcylic acid group.
After centrifugation, the supernatant were injected directly into the LC-MS/MS system. Calibrators were prepared by methylation of non labeled carnosine in methanolic HCl. The HPLC column used was a Zorbax XDB 150×4.6 mm ID with 5 μm particles. A gradient elution starting with 10% MeOH in water and 4 g/l ammonium acetate 40% MeOH for 3 minutes changing linearly to 100% methanol over 3.5 minutes was used to separate carnosine from other constituents.

[2] = cited from earlier work

For `NCCC(=O)O` [β-alanine], the “bioavailability and tissue uptake of β-alanine” value [1] is listed as “bioavailable and taken up by all the three target tissues”, the “reduction of muscle carnosine levels per week in washout” value ([2]; human volunteers, nine week washout after six weeks of β-alanine) is listed as 2.5-3.5 % reduction/week and the “average increase in muscle carnosine” value ([2]; humans, six week period, 4.8 g β-alanine per day) is listed as 27%.
